Measured values: patent US10787443B2, “RAF-degrading conjugate compounds” (ZAMBONI CHEM SOLUTIONS INC., priority 2017, dated 2020)
“Also recorded” adds a separate entry of the source.

What was measured:
[1] = test system: GST-Braf kinase domain and biotinylated E3 substrate adapter (VHL/EloB/EloC complex or CRBN318-425); assay: Dimerization assay (AlphaScreen/AlphaLisa), RAF/E3 dimerization; assay type: binding; conditions: Table 17; relative value; compounds 4 fold serial dilutions from 20 μM
[2] = target: T1, CRAF (CRAF fusion protein with a fluorescent protein) in Calu-6 cells (Homo sapiens, UniProt P04049); assay: Degradation assay, fluorescent CRAF fusion protein levels in Calu-6 cells (IncuCyte S3); assay type: cell-based; conditions: fluorescence/confluence
T1 construct: fluorescent protein (green); expressed in transfected cells; host or cells: Calu-6
Method: Calu-6 cells were stably transfected with a CRAF fusion protein with a fluorescent protein attached to the C-terminus of CRAF in order to monitor protein levels via fluorescence. Cells were seeded into a 96-well plate and allowed to adhere overnight. The next day cells are treated with compounds at the doses indicated in the table below and analyzed over time. Data was collected by monitoring Fluorescent CRAF protein levels an IncuCyte S3 Live Cell Analysis System (Essen BioScience). […] Calu6_CRAF fusion protein cells are imaged and analyzed using an Incucyte S3 live-cell analysis system (Essen Biosciences). Fluorescence signal is due to expression of the fluorescent protein covalently fused to the C-terminus of CRAF and degradation is assessed by measuring fluorescence/confluence (˜cell number) after treatment with compounds of the present disclosure. Phase contrast images are analyzed using Incucyte S3 software. Percent confluence is calculated using a phase contrast mask to quantify the area of the image occupied by the Calu6_CRAF fusion protein cells. Fluorescent images are analyzed using Incucyte S3 software. Green Corrected Units (GCU) is calculated using a fluorescence mask to quantify the area of the image occupied by green fluorescent signal and the intensity of the signal. […] As discussed above, degradation is measured as a function of fluorescence/confluence.

T1 sequence (P04049 whole entry, the tested form may be a part): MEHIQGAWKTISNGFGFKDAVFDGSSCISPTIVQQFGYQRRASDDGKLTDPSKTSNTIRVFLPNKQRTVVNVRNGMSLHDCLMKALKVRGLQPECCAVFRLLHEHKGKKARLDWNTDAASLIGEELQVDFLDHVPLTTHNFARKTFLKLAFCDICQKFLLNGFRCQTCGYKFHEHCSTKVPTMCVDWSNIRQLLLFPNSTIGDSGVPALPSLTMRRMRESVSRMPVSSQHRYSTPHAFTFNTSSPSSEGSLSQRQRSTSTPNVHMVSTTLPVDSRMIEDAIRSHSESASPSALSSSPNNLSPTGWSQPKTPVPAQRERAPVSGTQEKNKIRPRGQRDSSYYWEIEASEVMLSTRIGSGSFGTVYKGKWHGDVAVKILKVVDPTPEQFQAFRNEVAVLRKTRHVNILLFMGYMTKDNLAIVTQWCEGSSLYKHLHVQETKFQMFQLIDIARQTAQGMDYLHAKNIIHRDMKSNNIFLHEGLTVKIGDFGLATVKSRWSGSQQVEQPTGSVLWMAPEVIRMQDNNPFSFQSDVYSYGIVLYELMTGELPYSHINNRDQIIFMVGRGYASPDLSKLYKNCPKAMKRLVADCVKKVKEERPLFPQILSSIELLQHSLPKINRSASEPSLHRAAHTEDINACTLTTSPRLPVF

Compound | RAF/E3 Dimerization [1] | CRAF degradation in Calu6 cells over time ([2]; 3 μM, FIG. 4, 8, 9) | other results
Cc1ncc(NC(=O)c2cccc(C(F)(F)F)c2)cc1-c1cnc(O[C@H]2CCO[C@@H](COCc3cn(CCCCCC(=O)N[C@@H](C(=O)N4C[C@H](O)C[C@H]4C(=O)N[C@@H](C)c4ccc(-c5scnc5C)cc4)C(C)(C)C)nn3)C2)c(N2CCOCC2)c1 (relative stereo) [Compound 2.004, (2S,4R)-1-((R)-3,3-dimethyl-2-(6-(4-((((2R*,4S*)-4-((2′-methyl-5-morpholino-5′-(3-(trifluoromethyl)benzamido)-[3,3′-bipyridin]-6-yl)oxy)tetrahydro-2H-pyran-2-yl)methoxy)methyl)-1H-1,2,3-triazol-1-yl)hexanamido)butanoyl)-4-hydroxy-N—((S)-1-(4-(4-methylthiazol-5-yl)phenyl)ethyl)pyrrolidine-2-carboxamide] | +++ (50% > RAF/E3 Dimerization ≥ 25) | – | CRAF degradation in Calu6 cells over time ([2]; 1.5 μM, FIG. 3): CRAF degradation
Cc1ccc(NC(=O)c2cccc(C(F)(F)F)c2)cc1-c1cnc(OCCc2cn(CCCCCC(=O)Nc3cccc4c3C(=O)N(C3CCC(=O)NC3=O)C4=O)nn2)c(N2CCOCC2)c1 (stereo not drawn) [Compound 1.009, N-(3-(6-(2-(1-(6-((2-(2,6-dioxopiperidin-3-yl)-1,3-dioxoisoindolin-4-yl)amino)-6-oxohexyl)-1H-1,2,3-triazol-4-yl)ethoxy)-5-morpholinopyridin-3-yl)-4-methylphenyl)-3-(trifluoromethyl)benzamide] | + (5% > RAF/E3 Dimerization) | CRAF degradation | –
Cc1ncc(NC(=O)c2cccc(C(F)(F)F)c2)cc1-c1cnc(OCCOCCOCCOCCOCCOCC(=O)N[C@@H](C(=O)N2C[C@H](O)C[C@H]2C(=O)N[C@@H](C)c2ccc(-c3scnc3C)cc2)C(C)(C)C)c(N2CCOCC2)c1 [Compound 2.001, (2S,4R)-1-((R)-2-(tert-butyl)-20-((2′-methyl-5-morpholino-5′-(3-(trifluoromethyl)-benzamido)-[3,3′-bipyridin]-6-yl)oxy)-4-oxo-6,9,12,15,18-pentaoxa-3-azaicosan-1-oyl)-4-hydroxy-N—((S)-1-(4-(4-methylthiazol-5-yl)phenyl)ethyl)pyrrolidine-2-carboxamide] | +++++ (RAF/E3 Dimerization ≥75%) | CRAF degradation | –
Cc1ncc(NC(=O)c2cccc(C(F)(F)F)c2)cc1-c1cnc(OCCOCCOCCOCc2cn(CCCCCC(=O)N[C@@H](C(=O)N3C[C@@H](O)C[C@@H]3C(=O)N[C@@H](C)c3ccc(-c4scnc4C)cc3)C(C)(C)C)nn2)c(N2CCOCC2)c1 [Compound 2.010, (2R,4S)-1-((R)-3,3-dimethyl-2-(6-(4-((2-(2-(2-((2′-methyl-5-morpholino-5′-(3-(trifluoromethyl)benzamido)-[3,3′-bipyridin]-6-yl)oxy)ethoxy)ethoxy)ethoxy)methyl)-1H-1,2,3-triazol-1-yl)hexanamido)butanoyl)-4-hydroxy-N—((S)-1-(4-(4-methylthiazol-5-yl)phenyl)ethyl)pyrrolidine-2-carboxamide] | – | – | CRAF degradation in Calu6 cells over time ([2]; 1.67 μM, FIG. 13, FIG. 14): no CRAF degradation; also recorded: does not significantly reduce the relative amount of CRAF
Cc1ccc(NC(=O)c2cccc(C(F)(F)F)c2)cc1-c1cnc(OCCOCc2cn(CCCCCC(=O)Nc3cccc4c3C(=O)N(C3CCC(=O)NC3=O)C4=O)nn2)c(N2CCOCC2)c1 (stereo not drawn) [Compound 2.012, N-(3-(6-(2-((1-(6-((2-(2,6-dioxopiperidin-3-yl)-1,3-dioxoisoindolin-4-yl)amino)-6-oxohexyl)-1H-1,2,3-triazol-4-yl)methoxy)ethoxy)-5-morpholinopyridin-3-yl)-4-methylphenyl)-3-(trifluoromethyl)benzamide] | +++ (50% > RAF/E3 Dimerization ≥ 25) | CRAF degradation | –
Cc1ncc(NC(=O)c2cccc(C(F)(F)F)c2)cc1-c1cnc(OCCOCCOCCOCCOCC(=O)NCCCCCc2cccc3c2CN(C2CCC(=O)NC2=O)C3=O)c(N2CCOCC2)c1 (stereo not drawn) [Compound 2.014, N-(5-(2-(2,6-dioxopiperidin-3-yl)-1-oxoisoindolin-4-yl)pentyl)-14-((2′-methyl-5-morpholino-5′-(3-(trifluoromethyl)benzamido)-[3,3′-bipyridin]-6-yl)oxy)-3,6,9,12-tetraoxatetradecan-1-amide] | +++++ (RAF/E3 Dimerization ≥75%) | – | CRAF degradation in Calu6 cells over time ([2]; 12.5 μM, FIG. 7): CRAF degradation
Cc1ncsc1-c1ccc([C@H](C)NC(=O)[C@@H]2C[C@@H](O)CN2C(=O)[C@H](NC(=O)COCCOCCOCCOCCCCCCn2cc(-c3ccnc(NCCC#N)n3)c(-c3cnc4[nH]ccc4c3)n2)C(C)(C)C)cc1 [Compound 2.045, (2S,4R)-1-((R)-2-(tert-butyl)-21-(4-(2-((2-cyanoethyl)amino)pyrimidin-4-yl)-3-(1H-pyrrolo[2,3-b]pyridin-5-yl)-H-pyrazol-1-yl)-4-oxo-6,9,12,15-tetraoxa-3-azahenicosan-1-oyl)-4-hydroxy-N—((S)-1-(4-(4-methylthiazol-5-yl)phenyl)ethyl)pyrrolidine-2-carboxamide] | +++++ (RAF/E3 Dimerization ≥75%) | – | –
Cc1ncsc1-c1ccc([C@H](C)NC(=O)[C@@H]2C[C@@H](O)CN2C(=O)[C@H](NC(=O)COCCOCCNC(=O)CCNc2nccc(-c3cn(CC(F)F)nc3-c3cnc4[nH]ccc4c3)n2)C(C)(C)C)cc1 [Compound 2.046, (2S,4R)-1-((R)-2-(tert-butyl)-15-((4-(1-(2,2-difluoroethyl)-3-(1H-pyrrolo[2,3-b]pyridin-5-yl)-1H-pyrazol-4-yl)pyrimidin-2-yl)amino)-4,13-dioxo-6,9-dioxa-3,12-diazapentadecan-1-oyl)-4-hydroxy-N—((S)-1-(4-(4-methylthiazol-5-yl)phenyl)ethyl)pyrrolidine-2-carboxamide] | +++ (50% > RAF/E3 Dimerization ≥ 25) | – | –
Cc1ncc(NC(=O)c2cccc(C(F)(F)F)c2)cc1-c1cnc(OC2CCOCC2)c(N2CCN(CCCCc3cn(CCCCCC(=O)Nc4cccc5c4C(=O)N(C4CCC(=O)NC4=O)C5=O)nn3)CC2)c1 (stereo not drawn) [Compound 2.048, N-(5′-(4-(4-(1-(6-((2-(2,6-dioxopiperidin-3-yl)-1,3-dioxoisoindolin-4-yl)amino)-6-oxohexyl)-1H-1,2,3-triazol-4-yl)butyl)piperazin-1-yl)-2-methyl-6′-((tetrahydro-2H-pyran-4-yl)oxy)-[3,3′-bipyridin]-5-yl)-3-(trifluoromethyl)benzamide] | ++ (25% > RAF/E3 Dimerization ≥ 5%) | – | –
Cc1ncc(NC(=O)c2cccc(C(F)(F)F)c2)cc1-c1cnc(OC2CCOCC2)c(N2CCN(C(=O)CCCc3cn(CCCCCC(=O)Nc4cccc5c4C(=O)N(C4CCC(=O)NC4=O)C5=O)nn3)CC2)c1 (stereo not drawn) [Compound 2.049, N-(5′-(4-(4-(1-(6-((2-(2,6-dioxopiperidin-3-yl)-1,3-dioxoisoindolin-4-yl)amino)-6-oxohexyl)-1H-1,2,3-triazol-4-yl)butanoyl)piperazin-1-yl)-2-methyl-6′-((tetrahydro-2H-pyran-4-yl)oxy)-[3,3′-bipyridin]-5-yl)-3-(trifluoromethyl)benzamide] | + (5% > RAF/E3 Dimerization) | – | –
